ChEMBL document CHEMBL5303304, “EUbOPEN Chemogenomics Library - IncuCyte” (2023)

How the values were obtained:
Type in all cases: toxicity, cell-based
Fibroblast = test: Incucyte cell viability with human fibroblast; conditions: 10 µM, compound concentration 10 uM
U2OS = test: Incucyte cell viability with U2OS; conditions: human, 10 µM, compound concentration 10 uM
HEK-293T = test: Incucyte cell viability with HEK293T; conditions: human, 10 µM, compound concentration 10 uM
Note: unitless GR value; below 1 slowed growth and below 0 cell loss.

SMILES	Growth Rate (Fibroblast; 6 h, replicate number 2)	Growth Rate (Fibroblast; 12 h, replicate number 2)	Growth Rate (Fibroblast; 18 h, replicate number 1)	Growth Rate (Fibroblast; 18 h, replicate number 2)	Growth Rate (Fibroblast; 24 h, replicate number 1)	Growth Rate (Fibroblast; 24 h, replicate number 2)	Growth Rate (HEK-293T; 0 h, replicate number 1)	Growth Rate (HEK-293T; 0 h, replicate number 2)	Growth Rate (HEK-293T; 6 h, replicate number 2)	Growth Rate (HEK-293T; 12 h, replicate number 2)	Growth Rate (HEK-293T; 18 h, replicate number 1)	Growth Rate (HEK-293T; 24 h, replicate number 1)	Growth Rate (HEK-293T; 24 h, replicate number 2)	Growth Rate (Fibroblast; 0 h, replicate number 2)	Growth Rate (HEK-293T; 6 h, replicate number 1)	Growth Rate (HEK-293T; 12 h, replicate number 1)	Growth Rate (HEK-293T; 18 h, replicate number 2)	further results
CCNC1=N[C@@H]2[C@@H](O)[C@H](O)[C@@H](CO)O[C@@H]2S1	0.18	0.76	0.83	0.8	0.92	0.99	-0.01	-0.15	0.53	0.93	0.78	0.86	0.89					Growth Rate (Fibroblast; 12 h, replicate number 1): 0.91; Growth Rate (U2OS; 0 h, replicate number 1): -0.37; Growth Rate (U2OS; 0 h, replicate number 2): 0.47; Growth Rate (U2OS; 6 h, replicate number 1): 0.53; Growth Rate (U2OS; 6 h, replicate number 2): 0.45; Growth Rate (U2OS; 12 h, replicate number 1): 0.86; Growth Rate (U2OS; 12 h, replicate number 2): 0.79; Growth Rate (U2OS; 18 h, replicate number 1): 0.91; Growth Rate (U2OS; 18 h, replicate number 2): 0.81; Growth Rate (U2OS; 24 h, replicate number 1): 0.95; Growth Rate (U2OS; 24 h, replicate number 2): 0.74
Fc1ccc(Cl)cc1-c1nc(Nc2ccncc2)c2nccnc2n1							-0.93		0.79	0.91				-0.5				Growth Rate (U2OS; 0 h, replicate number 1): -0.59; Growth Rate (U2OS; 0 h, replicate number 2): 0.75; Growth Rate (U2OS; 6 h, replicate number 1): 0.78; Growth Rate (U2OS; 6 h, replicate number 2): 0.55; Growth Rate (U2OS; 12 h, replicate number 1): 0.86; Growth Rate (U2OS; 12 h, replicate number 2): 0.77; Growth Rate (U2OS; 18 h, replicate number 1): 0.67; Growth Rate (U2OS; 18 h, replicate number 2): 0.87; Growth Rate (U2OS; 24 h, replicate number 1): 0.95; Growth Rate (U2OS; 24 h, replicate number 2): 0.75
O=C(Nc1ccc(C(O)(C(F)(F)F)C(F)(F)F)cc1)c1ccc(C(F)(F)F)cc1	-0.08	0.22	0.52	0.11	0.47	0.07		-0.33	0.09	0.2	0.04	0.05	0.15		-0.31	-0.13	0.18	Growth Rate (Fibroblast; 6 h, replicate number 1): 0.78; Growth Rate (Fibroblast; 12 h, replicate number 1): 0.64
Cc1[nH]c2c(N3CCCCC3)c(-c3ccccc3)nn2c(=O)c1-c1ccc(O)cc1	0.19	0.39	0.73	0.35	0.64	0.24	-0.59		0.55	0.88					0.95			Growth Rate (Fibroblast; 0 h, replicate number 1): -0.08; Growth Rate (U2OS; 0 h, replicate number 1): -0.56; Growth Rate (U2OS; 6 h, replicate number 1): 0.77; Growth Rate (U2OS; 6 h, replicate number 2): 0.87; Growth Rate (U2OS; 12 h, replicate number 1): 0.9; Growth Rate (U2OS; 12 h, replicate number 2): 0.92; Growth Rate (U2OS; 18 h, replicate number 1): 0.85; Growth Rate (U2OS; 18 h, replicate number 2): 0.93; Growth Rate (U2OS; 24 h, replicate number 1): 0.78; Growth Rate (U2OS; 24 h, replicate number 2): 0.82
Cc1ncsc1-c1ccc(CNC(=O)[C@@H]2C[C@@H](O)CN2C(=O)[C@@H](NC(=O)C2(F)CC2)C(C)(C)C)c(OCCOc2ccc(CN3CCN(c4cc(-c5ccccc5O)nnc4N)CC3)cc2)c1							-1							-1				
COc1cc(C(=O)NCCOCCOCCOCCC(=O)Nc2cccc3c2C(=O)N(C2CCC(=O)NC2=O)C3=O)ccc1Nc1ncc(C(F)(F)F)c(Oc2cccc3c2C(=O)CC3)n1 (configuration not stated)		0.65					-0.87	-0.99			0.71	0.61	0.74	0.45	0.89	0.57	0.69	
O=c1[nH]c(CS[C@H]2CC[C@H](O)CC2)nc2cc(OCC3CC3)cc(F)c12	0.65	0.67					0.63					0.87	0.94	0.47			1	Growth Rate (U2OS; 0 h, replicate number 1): -0.28; Growth Rate (U2OS; 0 h, replicate number 2): 0.9; Growth Rate (U2OS; 6 h, replicate number 1): 0.81; Growth Rate (U2OS; 6 h, replicate number 2): 0.82; Growth Rate (U2OS; 12 h, replicate number 1): 0.45; Growth Rate (U2OS; 12 h, replicate number 2): 0.73; Growth Rate (U2OS; 18 h, replicate number 1): 0.92; Growth Rate (U2OS; 18 h, replicate number 2): 0.66; Growth Rate (U2OS; 24 h, replicate number 1): 0.98; Growth Rate (U2OS; 24 h, replicate number 2): 0.64
N=C(N)NCCC[C@H](NC(=O)CC1(CC(=O)N2CCN(C(c3ccccc3)c3ccccc3)CC2)CCCC1)C(=O)NCc1ccccc1.O=C(O)C(F)(F)F.O=C(O)C(F)(F)F			0.47	0.92	0.8	0.64	0.71		0.95					-0.98	0.7	0.89		Growth Rate (Fibroblast; 6 h, replicate number 1): 0.88; Growth Rate (Fibroblast; 12 h, replicate number 1): 0.74
N=C(N)Nc1cc(C2CCNCC2)cc(C(F)(F)F)c1.O=C(O)C(F)(F)F.O=C(O)C(F)(F)F					0.99		0.85	-0.14			0.98	0.96		-1	0.69	0.91		
COc1cc2nc([C@@H]3CCCS(=O)(=O)C3)n(C)c2cc1NC(=O)c1cccc(C(C)(F)F)n1							-0.79	-0.88						-0.81				
c1ccc(C(OC2CCN(CCCc3nnn[nH]3)CC2)c2ccccc2)cc1	-0.26			0.75					0.46	0.67	0.57	0.65	0.75		0.35	0.7	0.85	
C[C@@H](COCCC(=O)N1CCN(c2ncc(C(F)(F)F)cn2)CC1)Nc1cn[nH]c(=O)c1C(F)(F)F [ATAMPARIB]	0.74	0.15	0.22	0.13	0.39	0.15	0.95	0.81	0.59	0.8			0.75				0.9	Growth Rate (Fibroblast; 6 h, replicate number 1): 0.88; Growth Rate (Fibroblast; 12 h, replicate number 1): 0.3
Cc1ccc(NC(=O)c2ccc(CN3CC[C@H](N(C)C)C3)c(C(F)(F)F)c2)cc1Nc1nccc(-c2cncnc2)n1 [BAFETINIB]	-0.55	0.02	0.01	0.39	0.14	0.54				0.68	0.96	0.97		0.2	0.57	0.67	0.99	Growth Rate (Fibroblast; 0 h, replicate number 1): -1; Growth Rate (Fibroblast; 6 h, replicate number 1): -0.23; Growth Rate (Fibroblast; 12 h, replicate number 1): 0.05
CCN(CC)C(=O)C1CN2CCc3cc(OC)c(OC)cc3C2CC1OC(C)=O (configuration not stated) [BENZQUINAMIDE]	-0.43	1		0.6		0.97	0.39		0.7	0.59			0.87				0.61	
CN(C)C(=O)Cn1cc(-c2nc(C3(c4ccc(-c5cnc(N)nc5)cc4)CC3)no2)cn1 [BI 0153]	-0.35	0.4	0.91	0.6	0.73	0.96	0.71				0.95	0.92		-0.89	0.25			Growth Rate (Fibroblast; 0 h, replicate number 1): -1; Growth Rate (Fibroblast; 6 h, replicate number 1): 0.57
CN[C@@H](C)C(=O)N[C@H](C(=O)N1CCC[C@H]1C(=O)Nc1sc(-c2ncco2)nc1-c1ccccc1)C1CCCCC1 [GDC-0917]	0.6						0.71		0.98		0.86	0.92	0.99		0.6	0.93		Growth Rate (Fibroblast; 0 h, replicate number 1): -1
CC(C)(O)c1cnc(N2C[C@@]3(CCC[C@](C)(Cn4cnc5ccc(C#N)cc54)C3)OC2=O)cn1 [GSK2798745]	-1	-0.2	-0.39	0.4		0.36			0.2	0.41	0.47	0.49	0.45		-0.31	0.38	0.43	Growth Rate (Fibroblast; 0 h, replicate number 1): 0.24
Cc1cccc(-c2[nH]c(CNc3ccccc3F)nc2-c2ccc3ncnn3c2)n1 [VACTOSERTIB]			0.97				0.84	-0.43	0.58					-0.26	0.95			
